The target in this test is T1, human GPR119 (Homo sapiens, UniProt Q8TDV5).
T1 construct: expression vector for human GPR119 cDNA (Acc. No. NP_848566); expressed in transfected cells
T1 sequence (Q8TDV5 1-335): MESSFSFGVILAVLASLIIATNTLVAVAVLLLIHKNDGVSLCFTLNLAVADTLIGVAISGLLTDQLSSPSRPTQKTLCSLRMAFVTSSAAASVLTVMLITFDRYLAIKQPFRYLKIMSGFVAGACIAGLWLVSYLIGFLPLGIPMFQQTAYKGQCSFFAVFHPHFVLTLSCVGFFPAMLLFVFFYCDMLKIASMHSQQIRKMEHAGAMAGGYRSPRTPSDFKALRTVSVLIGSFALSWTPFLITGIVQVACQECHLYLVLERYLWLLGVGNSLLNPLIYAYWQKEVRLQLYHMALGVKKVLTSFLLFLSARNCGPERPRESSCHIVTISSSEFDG
The experiment in a line: AlphaScreen cAMP assay, activation of GPR119 in MIN6 cells stably transfected with human GPR119. In kind it is cell-based. The following applies: Min-6/hGPR119 cells, intracellular cAMP, 45 minutes incubation at room temperature. How it is done:
The compounds of the invention modulate the activity of the G-protein-coupled receptor GPR119. The effect of the compounds on the activation of GPR119 and on the stimulation of intracellular cAMP concentration is determined using the AlphaScreen cAMP Assay Kit (Cat.No.#6760625R) made by Perkin Elmer.
MIN6 cells [Miyazaki J et al., Endocrinology. 1990 July; 127(1):126-32] are stably transfected with an expression vector for human GPR119 cDNA (Acc. No. NP_848566). Min-6/hGPR119 cells are cultured in DMEM, 10% FBS, 50 μM β-mercaptoethanol, 0.3 mg/mL Geniticin, 2 mM GlutaMAX at 37° C., 5% CO2. For the assay, the cells are seeded in Optiplates (white, 384-well, 160W-barcoded, TC, sterile with lid, Cat.No.#6007688 (Perkin Elmer); 10000 cells/well; 50 μL). The plates covered with lids are then incubated for 24 hours at 37° C., 5% CO2. After the medium is aspirated from the wells completely, 10 μl of the test compound are added, the compounds are diluted using stimulating buffer (140 mM NaCl, 3.6 mM KCl, 0.5 mM NaH2PO4, 0.5 mM MgSO4, 1.5 mM CaCl2, 10 mM Hepes, 5 mM NaHCO3; pH 7.4. 0.5 mM IBMX and 0.1% BSA, the final DMSO concentration is 1%). After 45 minutes incubation at room temperature (approx. 20° C.), the cAMP concentrations are determined using the AlphaScreen cAMP Assay Kit (Cat.No.#6760625R from PerkinElmer).
(In Alpha technology, singlet oxygen from a donor bead excites a nearby acceptor bead.)
Consider `C[C@H](OC(=O)N1CCC([C@H]2Cc3cc(-c4ccc(S(C)(=O)=O)cc4)ncc3O2)CC1)C(F)(F)F` [Example 1, (S)-4-[(R)-5-(4-Methanesulfonyl-phenyl)-2,3-dihydro-furo[2,3-c]pyridin-2-yl]-piperidine-1-carboxylic acid 2,2,2-trifluoro-1-methyl-ethyl ester], for which the EC50 (commonly the midpoint of the concentration-response curve) came to 5 nM.
As for `C[C@@H](OC(=O)N1CCC([C@H]2Cc3cc(-c4ccc(S(C)(=O)=O)cc4)ncc3O2)CC1)C(F)(F)F` [Example 2, (R)-4-[(R)-5-(4-Methanesulfonyl-phenyl)-2,3-dihydro-furo[2,3-c]pyridin-2-yl]-piperidine-1-carboxylic acid 2,2,2-trifluoro-1-methyl-ethyl ester], the figure is 6 nM; as for `C[C@@H](OC(=O)N1CCC([C@H]2Cc3cc(C4=CCN(S(C)(=O)=O)CC4)ncc3O2)CC1)C(F)(F)F` [Example 3, (R)-4-[(R)-5-(1-Methanesulfonyl-1,2,3,6-tetrahydro-pyridin-4-yl)-2,3-dihydro-furo[2,3-c]pyridin-2-yl]-piperidine-1-carboxylic acid 2,2,2-trifluoro-1-methyl-ethyl ester], 6 nM.
As for `C[C@H](OC(=O)N1CCC([C@H]2Cc3cc(C4=CCN(S(C)(=O)=O)CC4)ncc3O2)CC1)C(F)(F)F` [Example 4, (S)-4-[(R)-5-(1-Methanesulfonyl-1,2,3,6-tetrahydro-pyridin-4-yl)-2,3-dihydro-furo[2,3-c]pyridin-2-yl]-piperidine-1-carboxylic acid 2,2,2-trifluoro-1-methyl-ethyl ester], the figure is 5 nM; as for `C[C@H](OC(=O)N1CCC([C@]2(C)Cc3cc(C4=CCN(S(C)(=O)=O)CC4)ncc3O2)CC1)C(F)(F)F` [Example 5, (S)-4-[(S)-5-(1-Methanesulfonyl-1,2,3,6-tetrahydro-pyridin-4-yl)-2-methyl-2,3-dihydro-furo[2,3-c]pyridin-2-yl]-piperidine-1-carboxylic acid 2,2,2-trifluoro-1-methyl-ethyl ester], 109 nM; as for `C[C@@H](OC(=O)N1CCC([C@@]2(C)Cc3cc(C4=CCN(S(C)(=O)=O)CC4)ncc3O2)CC1)C(F)(F)F` [Example 6, (R)-4-[(R)-5-(1-Methanesulfonyl-1,2,3,6-tetrahydro-pyridin-4-yl)-2-methyl-2,3-dihydro-furo[2,3-c]pyridin-2-yl]-piperidine-1-carboxylic acid 2,2,2-trifluoro-1-methyl-ethyl ester], 7 nM.
Under `C[C@H](OC(=O)N1CCC([C@@]2(C)Cc3cc(C4=CCN(S(C)(=O)=O)CC4)ncc3O2)CC1)C(F)(F)F` [Example 7, (S)-4-[(R)-5-(1-Methanesulfonyl-1,2,3,6-tetrahydro-pyridin-4-yl)-2-methyl-2,3-dihydro-furo[2,3-c]pyridin-2-yl]-piperidine-1-carboxylic acid 2,2,2-trifluoro-1-methyl-ethyl ester] stands 3 nM.
`C[C@@H](OC(=O)N1CCC([C@@]2(C)Cc3cc(-c4ccc(S(C)(=O)=O)cc4)ncc3O2)CC1)C(F)(F)F` [Example 8, (R)-4-[(R)-5-(4-Methanesulfonyl-phenyl)-2-methyl-2,3-dihydro-furo[2,3-c]pyridin-2-yl]-piperidine-1-carboxylic acid 2,2,2-trifluoro-1-methyl-ethyl ester] showed an EC50 of 4 nM.
Under `C[C@H](OC(=O)N1CCC([C@@]2(C)Cc3cc(-c4ccc(S(C)(=O)=O)cc4)ncc3O2)CC1)C(F)(F)F` [Example 9, (S)-4-[(R)-5-(4-Methanesulfonyl-phenyl)-2-methyl-2,3-dihydro-furo[2,3-c]pyridin-2-yl]-piperidine-1-carboxylic acid 2,2,2-trifluoro-1-methyl-ethyl ester] stands 1 nM.

These data come from patent US8975277B2, “2,3-dihydrofuro[2,3-c]pyridin-2-ylpiperidine derivatives” (Boehringer Ingelheim International GmbH, priority 2012, dated 2015).
